Laboratory results reported in patent publication EP4786473A1, “PHARMACEUTICALLY ACCEPTABLE SALT AND CRYSTALLINE FORM OF QUINAZOLINE DERIVATIVE, AND USE THEREOF” (Jiangsu Hengrui Pharmaceuticals Co., Ltd., priority 2023, dated 2025).
Like-named read-outs stand apart in the source and are kept apart here.

Legend:
[1] = test system: HER2 wild-type Ba/F3 cells; test: Ba/F3 cell proliferation assay (HER2 wild-type); format: cell-based; conditions: 72 hours, Celltiter-Glo
Description: (§1) EGFR wild-type Ba/F3 cells in the logarithmic growth phase (Cobioer, Cat. No.: CBP73110) were seeded into 96-well plates at a density of 2.5 × 10^3 cells/100 uL of growth culture medium. HER2 wild-type Ba/F3 cells (Cobioer, Cat. No.: CBP73110) or HER2 A775_G776insYVMA mutant Ba/F3 cells (Cobioer, Cat. No.: CBP73184) in the logarithmic growth phase were seeded into 96-well plates at a density of 5 × 10^3 cells/100 uL of growth culture medium. The plates were incubated overnight in a 37°C cell incubator. The following day, the compound, which had been serially diluted 3-fold in growth culture medium, was added at 100 uL/well. All treatments were performed in triplicate. The plates were incubated in the 37°C cell incubator for another 72 hours. Celltiter-Glo Luminescent Cell Viability Assay was performed.
(§2) The cell proliferation rate was calculated for each well according to the following formula: Proliferation (%) = (G3 - G0 mean value of test compound wells)/(G3 mean value - GO mean value of DMSO control wells)*100. Based on the proliferation rate corresponding to each gradient concentration well and concentration thereof, the gradient curve of cell proliferation was fitted using Prism Graphpad software, and the GI50 of the compound was calculated (GI50 is defined as the compound concentration required to achieve a 50% inhibition rate of cell proliferation).

[2] = test system: HER2 A775_G776insYVMA mutant Ba/F3 cells; test: Ba/F3 cell proliferation assay (HER2 exon 20 YVMA insertion mutant); format: cell-based; conditions: 72 hours, Celltiter-Glo; for GI50: read-out: HER2 A775_G776 ins YVMA/BaF 3 GI50
Description: as §1, §2

[3] = test system: EGFR wild-type Ba/F3 cells; test: Ba/F3 cell proliferation assay (EGFR wild-type); format: cell-based; conditions: 72 hours, Celltiter-Glo
Description: as §1, §2

[4] = DVS (dynamic vapor sorption) hygroscopicity test; format: physicochemical
Description: DVS refers to dynamic vapor sorption and is determined using SMS DVS Advantage at 25°C, with the humidity change of 50%-95%-0%-95%-50% and the stepping of 10% (5% for the last step) (the specific humidity range is determined in accordance with the corresponding plot, and the methods listed herein are those most commonly used), and the standard for determination is as follow: dm/dt is not more than 0.002%.
100 mg of the compound of formula 1 was dissolved in 1 mL of acetone to give a clear solution. An aqueous p-toluenesulfonic acid solution (97.10 µL, 2 M) was added to the resulting solution. The mixture was stirred and centrifuged. The resulting solid was collected and dried under vacuum to obtain a product. […] The p-toluenesulfonate ion content of the product was detected to be 22.63% by ion chromatography. […] Furthermore, the crystal form was re-detected and found to be unchanged following the DVS test.

[5] = Stability study under influencing factors; format: physicochemical
Description: The sampling and investigation period was 1 month.

[6] = Long-term/accelerated stability; format: physicochemical
[7] = 75% RH, 1 month, open container
[8] = 75% RH, 13 days, open container
[9] = 92.5% RH, 1 month, open container
[10] = 92.5% RH, 13 days, open container
[11] = 4500 Lux, 1 month, open container
[12] = 4500 Lux, 7 days, open container
[13] = 4500 Lux, 13 days, open container

C=CC(=O)N1[C@@H]2CC[C@H]1C[C@@H](Oc1ccc3ncnc(Nc4ccc(Oc5ccn6ncnc6c5)c(C)c4F)c3c1)C2 [Example 1, 1-(endo-3-((4-((4-([1,2,4]triazolo[1,5-a]pyridin-7-yloxy)-2-fluoro-3-methylphenyl)amino)quinazolin-6-yl)oxy)-8-azabicyclo[3.2.1]oct-8-yl)prop-2-en-1-one]
HER2 WT/BaF 3 Imax % [1]: 100%
GI50 ([1]; read-out: HER2 WT/Ba F3 GI50): 9.3 nM
HER2 A775_G77 6 ins YVMA/Ba F3 Imax % [2]: 100%
GI50 [2]: 10.3 nM
EGFR WT/BaF 3 Imax % [3]: 100%
GI50 ([3]; read-out: EGFR WT/BaF3 GI50): 2840 nM

C=CC(=O)N1[C@@H]2CC[C@H]1C[C@@H](Oc1ccc3ncnc(Nc4ccc(Oc5ccn6ncnc6c5)c(C)c4F)c3c1)C2 [Crystal form I of p-toluenesulfonate, 1-(endo-3-((4-((4-([1,2,4]triazolo[1,5-a]pyridin-7-yloxy)-2-fluoro-3-methylphenyl)amino)quinazolin-6-yl)oxy)-8-azabicyclo[3.2.1]oct-8-yl)prop-2-en-1-one]
weight gain after moisture absorption ([4]; accelerated test conditions (70% RH)): about 1.57%
crystal form re-detected following the DVS test ([4]; after DVS test): unchanged
weight gain after moisture absorption ([4]; extreme conditions (90% RH)): about 2.21%
weight gain after moisture absorption ([4]; normal storage conditions (25°C, 60% RH)): about 1.18%
Colour and trait ([5]; 40°C, 1 month, open container): White powder
Purity% ([5]; 40°C, 1 month, open container): 95.2%
Salt form ([5]; 40°C, 1 month, open container): Unchanged
Colour and trait ([5]; 40°C, 7 days, open container): White powder
Purity% ([5]; 40°C, 7 days, open container): 98.7%
Salt form ([5]; 40°C, 7 days, open container): Unchanged
Colour and trait ([5]; 40°C, 13 days, open container): White powder
Purity% ([5]; 40°C, 13 days, open container): 97.6%
Salt form ([5]; 40°C, 13 days, open container): Unchanged
Colour and trait ([5]; 60°C, 1 month, open container): White powder
Purity% ([5]; 60°C, 1 month, open container): 94.9%
Salt form ([5]; 60°C, 1 month, open container): Unchanged
Colour and trait ([5]; 60°C, 7 days, open container): White powder
Purity% ([5]; 60°C, 7 days, open container): 98.7%
Salt form ([5]; 60°C, 7 days, open container): Unchanged
Colour and trait ([5]; 60°C, 13 days, open container): White powder
Purity% ([5]; 60°C, 13 days, open container): 97.8%
Salt form ([5]; 60°C, 13 days, open container): Unchanged
Colour and trait [5, 7]: White powder
Purity% [5, 7]: 99.7%
Salt form [5, 7]: Unchanged
Colour and trait [5, 8]: White powder
Purity% [5, 8]: 99.7%
Salt form [5, 8]: Unchanged
Colour and trait [5, 9]: White powder
Purity% [5, 9]: 99.7%
Salt form [5, 9]: Unchanged
Colour and trait [5, 10]: White powder
Purity% [5, 10]: 99.7%
Salt form [5, 10]: Unchanged
Colour and trait [5, 11]: White powder
Purity% [5, 11]: 99.1%
Salt form [5, 11]: Unchanged
Colour and trait [5, 12]: White powder
Purity% [5, 12]: 99.6%
Salt form [5, 12]: Unchanged
Colour and trait [5, 13]: White powder
Purity% [5, 13]: 99.5%
Salt form [5, 13]: Unchanged
Colour and trait ([5]; Initial, 0 day): White powder
Purity% ([5]; Initial, 0 day): 99.7%
Salt form ([5]; Initial, 0 day): Crystal form I of p-toluenesulfonate
Colour and trait ([6]; 25°C/60% RH, 1 month): White powder
Purity% ([6]; 25°C/60% RH, 1 month): 99.7%
Salt form ([6]; 25°C/60% RH, 1 month): Unchanged
Colour and trait ([6]; 25°C/60% RH, 2 months): White powder
Purity% ([6]; 25°C/60% RH, 2 months): 99.7%
Salt form ([6]; 25°C/60% RH, 2 months): Unchanged
Colour and trait ([6]; 25°C/60% RH, 3 months): White powder
Purity% ([6]; 25°C/60% RH, 3 months): 99.7%
Salt form ([6]; 25°C/60% RH, 3 months): Unchanged
Colour and trait ([6]; 25°C/60% RH, 6 months): White powder
Purity% ([6]; 25°C/60% RH, 6 months): 99.7%
Salt form ([6]; 25°C/60% RH, 6 months): Unchanged
Colour and trait ([6]; 25°C/60% RH, 14 days): White powder
Purity% ([6]; 25°C/60% RH, 14 days): 99.7%
Salt form ([6]; 25°C/60% RH, 14 days): Unchanged
Colour and trait ([6]; 40°C/75% RH, 1 month): White powder
Purity% ([6]; 40°C/75% RH, 1 month): 99.7%
Salt form ([6]; 40°C/75% RH, 1 month): Unchanged
Colour and trait ([6]; 40°C/75% RH, 2 months): White powder
Purity% ([6]; 40°C/75% RH, 2 months): 99.7%
Salt form ([6]; 40°C/75% RH, 2 months): Unchanged
Colour and trait ([6]; 40°C/75% RH, 3 months): White powder
Purity% ([6]; 40°C/75% RH, 3 months): 99.7%
Salt form ([6]; 40°C/75% RH, 3 months): Unchanged
Colour and trait ([6]; 40°C/75% RH, 6 months): White powder
Purity% ([6]; 40°C/75% RH, 6 months): 99.7%
Salt form ([6]; 40°C/75% RH, 6 months): Unchanged
Colour and trait ([6]; 40°C/75% RH, 14 days): White powder
Purity% ([6]; 40°C/75% RH, 14 days): 99.6%
Salt form ([6]; 40°C/75% RH, 14 days): Unchanged
Colour and trait ([6]; Initial, 0 day): White powder
Purity% ([6]; Initial, 0 day): 99.7%
Salt form ([6]; Initial, 0 day): Crystal form I of p-toluenesulfonate

Cc1cc(Nc2ncnc3ccc(NC4=NC(C)(C)CO4)cc23)ccc1Oc1ccn2ncnc2c1 [Tucatinib, reference compound]
HER2 A775_G77 6 ins YVMA/Ba F3 Imax % [2]: 100%
GI50 ([2]; Mus musculus, BaF3): 309 nM
